According to publication PMC5362750, “Discovery of Potent, Selective, and Orally Bioavailable Small-Molecule Modulators of the Mediator Complex-Associated Kinases CDK8 and CDK19” (Journal of Medicinal Chemistry, 2016):
Values after ≈ are worked out from the molar mass of the structure shown.

Tests used:
CLK3 = biological target: T1, CLK3 (Homo sapiens, UniProt P49761); experiment: Kinase panel (Millipore); assay type: biochemical; settings: 1 µM, ATP at Km
T1 construct: purchased Millipore (KinaseProfiler) kinase panel

JNK3 = JNK3 (Homo sapiens, UniProt P53779); experiment: Kinase panel (Millipore); assay type: biochemical; settings: 1 µM, ATP at Km
CKIT(V560G) = CKIT(V560G) (Homo sapiens, UniProt P10721, V560G); settings: 1 µM, ATP at Km
SAPK2B = SAPK2B (Homo sapiens, UniProt Q15759); experiment: Kinase panel (Millipore); assay type: biochemical; settings: 1 µM, ATP at Km
SAPK2B, sequence (Q15759 whole entry): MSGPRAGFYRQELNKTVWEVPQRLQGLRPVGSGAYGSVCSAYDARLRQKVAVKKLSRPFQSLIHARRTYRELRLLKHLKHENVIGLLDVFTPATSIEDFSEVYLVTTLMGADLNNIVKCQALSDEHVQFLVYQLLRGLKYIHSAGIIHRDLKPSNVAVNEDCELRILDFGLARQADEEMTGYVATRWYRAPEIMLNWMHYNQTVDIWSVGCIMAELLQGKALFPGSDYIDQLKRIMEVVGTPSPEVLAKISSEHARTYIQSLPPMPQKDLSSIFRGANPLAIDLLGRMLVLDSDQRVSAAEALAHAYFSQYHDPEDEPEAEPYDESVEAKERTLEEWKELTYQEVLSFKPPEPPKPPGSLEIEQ

V2 (h) = biological target: T2, V2 (h) (Homo sapiens, UniProt P30518); experiment: CEREP binding assay; settings: agonist radioligand, read-out: % Inhibition of Control Specific Binding
T2 construct: CEREP

ABL(T315I) = ABL(T315I) (Homo sapiens, UniProt P00519, T315I); settings: 1 µM, ATP at Km
5-HT2A (h) = 5-HT2A (h) (Homo sapiens, UniProt P28223); experiment: biochemical; settings: read-out: % Inhibition of Control Specific Binding
5-HT2A (h), sequence (P28223 whole entry): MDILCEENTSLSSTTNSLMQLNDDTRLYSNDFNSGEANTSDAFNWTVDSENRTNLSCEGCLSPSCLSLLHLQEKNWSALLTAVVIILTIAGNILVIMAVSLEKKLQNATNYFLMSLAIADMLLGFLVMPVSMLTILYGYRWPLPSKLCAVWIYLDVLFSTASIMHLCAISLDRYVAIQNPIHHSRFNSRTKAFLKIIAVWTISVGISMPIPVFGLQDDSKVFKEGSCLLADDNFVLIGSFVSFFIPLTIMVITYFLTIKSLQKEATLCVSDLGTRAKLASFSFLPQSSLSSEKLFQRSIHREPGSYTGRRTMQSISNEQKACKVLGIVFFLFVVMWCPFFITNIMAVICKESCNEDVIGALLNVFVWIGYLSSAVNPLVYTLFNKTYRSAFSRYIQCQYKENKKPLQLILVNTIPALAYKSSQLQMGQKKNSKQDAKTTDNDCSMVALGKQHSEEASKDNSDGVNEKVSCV

CHK2 = biological target: T3, CHK2 (Homo sapiens, UniProt O96017); experiment: Kinase panel (Millipore); assay type: biochemical; settings: 1 µM, ATP at Km
T3 construct: purchased Millipore (KinaseProfiler) kinase panel

P70S6K = biological target: T4, P70S6K (Homo sapiens, UniProt P23443); experiment: Kinase panel (Millipore); assay type: biochemical; settings: 1 µM, ATP at Km
T4 construct: purchased Millipore (KinaseProfiler) kinase panel
T4 sequence (P23443 whole entry): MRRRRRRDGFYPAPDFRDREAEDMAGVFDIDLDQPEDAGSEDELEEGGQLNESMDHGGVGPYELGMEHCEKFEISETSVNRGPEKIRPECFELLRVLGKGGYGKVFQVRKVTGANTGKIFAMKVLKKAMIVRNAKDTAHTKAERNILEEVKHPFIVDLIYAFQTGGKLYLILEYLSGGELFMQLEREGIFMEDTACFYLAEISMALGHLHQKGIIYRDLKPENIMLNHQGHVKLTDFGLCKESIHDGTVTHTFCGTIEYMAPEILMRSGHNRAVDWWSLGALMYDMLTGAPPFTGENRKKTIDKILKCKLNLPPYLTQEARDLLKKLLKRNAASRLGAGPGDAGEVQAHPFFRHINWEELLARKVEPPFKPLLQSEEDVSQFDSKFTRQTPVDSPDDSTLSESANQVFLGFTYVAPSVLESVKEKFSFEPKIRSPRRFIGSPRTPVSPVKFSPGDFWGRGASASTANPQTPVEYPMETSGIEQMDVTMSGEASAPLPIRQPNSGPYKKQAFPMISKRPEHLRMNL

HASPIN = biological target: T5, HASPIN (Homo sapiens, UniProt Q8TF76); experiment: Kinase panel (Millipore); assay type: biochemical; settings: 1 µM, ATP at Km
T5 construct: purchased Millipore (KinaseProfiler) kinase panel

TR (TH) = settings: 10 µM, agonist radioligand
in vivo [1] = settings: NCr athymic, mouse, po, 30 mg/kg
IRAK4 = IRAK4 (Homo sapiens, UniProt Q9NWZ3); experiment: Kinase panel (Millipore); assay type: biochemical; settings: 1 µM, ATP at Km
CB2 (h) = CB2 (h) (Homo sapiens, UniProt P34972); experiment: biochemical; settings: read-out: % Inhibition of Control Specific Binding
ROCK-II = ROCK-II (Homo sapiens, UniProt O75116); experiment: Kinase panel (Millipore); assay type: biochemical; settings: 1 µM, ATP at Km
TSSK2 = biological target: T6, TSSK2 (Homo sapiens, UniProt Q96PF2); experiment: Kinase panel (Millipore); assay type: biochemical; settings: 1 µM, ATP at Km
T6 construct: purchased Millipore (KinaseProfiler) kinase panel

RSK2 = RSK2 (Homo sapiens, UniProt P51812); experiment: Kinase panel (Millipore); assay type: biochemical; settings: 1 µM, ATP at Km
NEK7 = NEK7 (Homo sapiens, UniProt Q8TDX7); experiment: Kinase panel (Millipore); assay type: biochemical; settings: 1 µM, ATP at Km
CDK1/CYCLINB = CDK1/CYCLINB (Homo sapiens, UniProt P06493); settings: 1 µM, ATP at Km
MLCK = experiment: Kinase panel (Millipore); assay type: biochemical; settings: 1 µM, ATP at Km
RON = biological target: T7, RON (Homo sapiens, UniProt Q04912); experiment: Kinase panel (Millipore); assay type: biochemical; settings: 1 µM, ATP at Km
T7 construct: purchased Millipore (KinaseProfiler) kinase panel

sst4 (h) = sst4 (h) (Homo sapiens, UniProt P31391); experiment: CEREP binding assay; settings: agonist radioligand, read-out: % Inhibition of Control Specific Binding
ITK = biological target: T8, ITK (Homo sapiens, UniProt Q08881); experiment: Kinase panel (Millipore); assay type: biochemical; settings: 1 µM, ATP at Km
T8 construct: purchased Millipore (KinaseProfiler) kinase panel

BRSK2 = biological target: T9, BRSK2 (Homo sapiens, UniProt Q8IWQ3); experiment: Kinase panel (Millipore); assay type: biochemical; settings: 1 µM, ATP at Km
T9 construct: purchased Millipore (KinaseProfiler) kinase panel

TBK1 = biological target: T10, TBK1 (Homo sapiens, UniProt Q9UHD2); experiment: Kinase panel (Millipore); assay type: biochemical; settings: 1 µM, ATP at Km
T10 construct: purchased Millipore (KinaseProfiler) kinase panel
T10 sequence (Q9UHD2 whole entry): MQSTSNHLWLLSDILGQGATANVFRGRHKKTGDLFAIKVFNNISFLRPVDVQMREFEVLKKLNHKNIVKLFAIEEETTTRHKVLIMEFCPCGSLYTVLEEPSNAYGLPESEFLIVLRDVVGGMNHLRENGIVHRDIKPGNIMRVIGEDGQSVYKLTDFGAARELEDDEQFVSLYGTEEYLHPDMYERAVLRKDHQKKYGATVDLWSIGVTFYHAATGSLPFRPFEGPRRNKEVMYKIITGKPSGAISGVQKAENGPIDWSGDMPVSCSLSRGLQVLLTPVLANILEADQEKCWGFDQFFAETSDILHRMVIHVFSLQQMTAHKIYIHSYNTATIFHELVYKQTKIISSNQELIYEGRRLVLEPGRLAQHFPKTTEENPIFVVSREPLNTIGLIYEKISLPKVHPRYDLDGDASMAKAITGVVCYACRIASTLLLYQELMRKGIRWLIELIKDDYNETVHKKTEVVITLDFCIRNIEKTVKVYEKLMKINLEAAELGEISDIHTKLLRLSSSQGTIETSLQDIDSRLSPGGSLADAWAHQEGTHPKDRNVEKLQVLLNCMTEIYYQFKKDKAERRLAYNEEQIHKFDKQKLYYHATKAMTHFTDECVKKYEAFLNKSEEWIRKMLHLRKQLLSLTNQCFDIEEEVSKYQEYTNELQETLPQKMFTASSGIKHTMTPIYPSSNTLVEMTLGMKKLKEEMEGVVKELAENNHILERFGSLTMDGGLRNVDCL

STK33 = STK33 (Homo sapiens, UniProt Q9BYT3); settings: 1 µM, ATP at Km
MAPK2 = MAPK2 (Homo sapiens, UniProt P28482); experiment: Kinase panel (Millipore); assay type: biochemical; settings: 1 µM, ATP at Km
MAPK2, sequence (P28482 whole entry): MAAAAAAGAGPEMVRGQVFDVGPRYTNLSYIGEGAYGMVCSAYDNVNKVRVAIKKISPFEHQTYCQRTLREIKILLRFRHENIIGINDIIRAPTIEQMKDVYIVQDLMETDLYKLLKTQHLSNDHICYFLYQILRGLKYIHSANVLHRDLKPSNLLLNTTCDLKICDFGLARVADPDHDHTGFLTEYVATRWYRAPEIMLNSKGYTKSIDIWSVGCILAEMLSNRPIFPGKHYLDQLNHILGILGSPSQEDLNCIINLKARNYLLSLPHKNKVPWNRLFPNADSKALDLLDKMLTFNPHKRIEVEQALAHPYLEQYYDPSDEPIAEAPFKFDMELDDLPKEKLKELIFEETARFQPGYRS

GSK3BETA = GSK3BETA (Homo sapiens, UniProt P49841); experiment: Kinase panel (Millipore); assay type: biochemical; settings: 1 µM, ATP at Km
GSK3BETA, sequence (P49841 whole entry): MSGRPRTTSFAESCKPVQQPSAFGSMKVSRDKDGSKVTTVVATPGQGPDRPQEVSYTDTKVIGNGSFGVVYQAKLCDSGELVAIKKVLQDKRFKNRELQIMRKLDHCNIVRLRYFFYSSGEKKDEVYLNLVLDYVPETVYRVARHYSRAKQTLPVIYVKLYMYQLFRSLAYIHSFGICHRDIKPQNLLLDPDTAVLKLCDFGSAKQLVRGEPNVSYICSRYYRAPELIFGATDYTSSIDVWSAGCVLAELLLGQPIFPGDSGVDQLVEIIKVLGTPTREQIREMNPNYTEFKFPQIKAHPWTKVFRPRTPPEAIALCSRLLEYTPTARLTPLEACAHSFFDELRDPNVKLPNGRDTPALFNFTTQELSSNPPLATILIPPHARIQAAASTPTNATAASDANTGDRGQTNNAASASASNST

[2] = 120 min, pH 7.4
sst1 (h) = sst1 (h) (Homo sapiens, UniProt P30872); experiment: CEREP binding assay; settings: agonist radioligand, read-out: % Inhibition of Control Specific Binding
EPHA8 = biological target: T11, EPHA8 (Homo sapiens, UniProt P29322); experiment: Kinase panel (Millipore); assay type: biochemical; settings: 1 µM, ATP at Km
T11 construct: purchased Millipore (KinaseProfiler) kinase panel

NLK = biological target: T12, NLK (Homo sapiens, UniProt Q9UBE8); experiment: Kinase panel (Millipore); assay type: biochemical; settings: 1 µM, ATP at Km
T12 construct: purchased Millipore (KinaseProfiler) kinase panel
T12 sequence (Q9UBE8 whole entry): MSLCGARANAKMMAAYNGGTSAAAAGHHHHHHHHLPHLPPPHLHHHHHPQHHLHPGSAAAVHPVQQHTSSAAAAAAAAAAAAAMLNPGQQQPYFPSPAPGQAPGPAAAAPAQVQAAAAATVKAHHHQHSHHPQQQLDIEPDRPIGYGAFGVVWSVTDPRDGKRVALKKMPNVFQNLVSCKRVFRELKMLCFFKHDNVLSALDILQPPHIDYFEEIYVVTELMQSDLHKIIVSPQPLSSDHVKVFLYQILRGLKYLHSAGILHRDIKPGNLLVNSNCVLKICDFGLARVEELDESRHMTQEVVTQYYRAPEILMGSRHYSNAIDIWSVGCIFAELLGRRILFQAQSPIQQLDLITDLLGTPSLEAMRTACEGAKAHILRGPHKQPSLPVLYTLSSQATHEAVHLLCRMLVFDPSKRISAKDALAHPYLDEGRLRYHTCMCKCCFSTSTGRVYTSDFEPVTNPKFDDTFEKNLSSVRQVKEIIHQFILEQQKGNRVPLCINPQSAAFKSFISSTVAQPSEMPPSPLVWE

PIM-1 = PIM-1 (Homo sapiens, UniProt P11309); experiment: Kinase panel (Millipore); assay type: biochemical; settings: 1 µM, ATP at Km
PKD2 = biological target: T13, PKD2 (Homo sapiens, UniProt Q9BZL6); experiment: Kinase panel (Millipore); assay type: biochemical; settings: 1 µM, ATP at Km
T13 construct: purchased Millipore (KinaseProfiler) kinase panel
T13 sequence (Q9BZL6 whole entry): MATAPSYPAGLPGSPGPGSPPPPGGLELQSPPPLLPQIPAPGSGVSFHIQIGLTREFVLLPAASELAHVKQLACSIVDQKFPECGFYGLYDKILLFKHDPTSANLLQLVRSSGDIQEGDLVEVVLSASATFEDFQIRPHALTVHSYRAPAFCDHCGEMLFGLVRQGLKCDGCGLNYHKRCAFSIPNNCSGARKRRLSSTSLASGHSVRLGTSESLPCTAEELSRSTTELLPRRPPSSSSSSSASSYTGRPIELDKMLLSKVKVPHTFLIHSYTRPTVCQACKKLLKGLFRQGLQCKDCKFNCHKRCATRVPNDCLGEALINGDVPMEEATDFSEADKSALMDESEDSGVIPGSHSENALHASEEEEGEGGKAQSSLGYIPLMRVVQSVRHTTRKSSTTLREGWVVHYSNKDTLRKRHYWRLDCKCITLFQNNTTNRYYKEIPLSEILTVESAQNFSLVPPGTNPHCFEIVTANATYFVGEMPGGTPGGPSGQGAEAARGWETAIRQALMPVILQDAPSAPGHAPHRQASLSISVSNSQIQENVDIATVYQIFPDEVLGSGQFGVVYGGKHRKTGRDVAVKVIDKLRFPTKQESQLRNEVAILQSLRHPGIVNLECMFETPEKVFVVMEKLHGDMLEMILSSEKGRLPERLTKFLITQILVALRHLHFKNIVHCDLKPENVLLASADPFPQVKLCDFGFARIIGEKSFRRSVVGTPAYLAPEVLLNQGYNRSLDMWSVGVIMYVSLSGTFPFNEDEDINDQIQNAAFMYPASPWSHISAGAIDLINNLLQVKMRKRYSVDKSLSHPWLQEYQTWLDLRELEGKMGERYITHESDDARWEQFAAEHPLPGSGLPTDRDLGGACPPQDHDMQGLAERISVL

in vivo [3] = settings: female, dog, 0.2 mg/kg
PKCDELTA = PKCDELTA (Homo sapiens, UniProt Q05655); experiment: Kinase panel (Millipore); assay type: biochemical; settings: 1 µM, ATP at Km
PKCDELTA, sequence (Q05655 whole entry): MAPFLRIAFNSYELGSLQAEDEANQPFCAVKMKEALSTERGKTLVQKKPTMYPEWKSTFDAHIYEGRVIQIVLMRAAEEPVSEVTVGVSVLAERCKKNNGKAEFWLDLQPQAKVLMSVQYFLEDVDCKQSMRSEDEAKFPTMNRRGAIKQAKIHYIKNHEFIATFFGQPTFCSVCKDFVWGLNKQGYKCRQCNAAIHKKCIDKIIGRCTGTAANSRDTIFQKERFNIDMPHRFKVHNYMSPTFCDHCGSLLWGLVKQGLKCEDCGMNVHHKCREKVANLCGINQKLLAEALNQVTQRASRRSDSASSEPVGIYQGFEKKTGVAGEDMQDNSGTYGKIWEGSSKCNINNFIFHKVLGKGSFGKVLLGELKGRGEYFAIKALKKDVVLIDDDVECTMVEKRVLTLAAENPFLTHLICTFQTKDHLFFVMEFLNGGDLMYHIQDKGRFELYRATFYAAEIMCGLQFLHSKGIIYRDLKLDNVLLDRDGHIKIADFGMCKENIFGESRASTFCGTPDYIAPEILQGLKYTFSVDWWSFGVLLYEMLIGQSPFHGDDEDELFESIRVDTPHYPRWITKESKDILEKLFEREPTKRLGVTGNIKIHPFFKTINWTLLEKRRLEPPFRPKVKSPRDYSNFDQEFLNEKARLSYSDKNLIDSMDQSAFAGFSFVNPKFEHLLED

MET = biological target: T14, MET (Homo sapiens, UniProt P08581); experiment: Kinase panel (Millipore); assay type: biochemical; settings: 1 µM, ATP at Km
T14 construct: purchased Millipore (KinaseProfiler) kinase panel

GABAB(1b) (h) = GABAB(1b) (h) (Homo sapiens, UniProt Q9UBS5); experiment: biochemical; settings: read-out: % Inhibition of Control Specific Binding
cMET (Y1248D) = cMET (Y1248D) (Homo sapiens, UniProt P08581, Y1230D); settings: 1 µM, ATP at Km
PIM-3 = PIM-3 (Homo sapiens, UniProt Q86V86); experiment: Kinase panel (Millipore); assay type: biochemical; settings: 1 µM, ATP at Km

Q: Which “% effect” value (CLK3) does the source give for `Cn1ncc2cc(-c3cnc(N)c(Cl)c3N3CCC4(CCNC4=O)CC3)ccc21` [Compound 109, 8-(2-Amino-3-chloro-5-(1-methyl-1H-indazol-5-yl)pyridin-4-yl)-2,8-diazaspiro[4.5]decan-1-one] here?
A: 4%

Q: And the “% effect” value (JNK3)?
A: -5%

Q: And the “% effect” value (CKIT(V560G))?
A: -5%

Q: What about the “% effect” value (SAPK2B) of the same molecule?
A: -3%

Q: What about the inhibition at 10 µM (V2 (h)) of the same molecule?
A: 2%

Q: What about the “% effect” value (ABL(T315I)) of the same molecule?
A: 4%

Q: And the inhibition at 10 µM (5-HT2A (h))?
A: -10%

Q: What about the “% effect” value (CHK2) of the same molecule?
A: -2%

Q: What about the “% effect” value (P70S6K) of the same molecule?
A: -1%

Q: What about the “% effect” value (HASPIN) of the same molecule?
A: 26%

Q: What about the “% Inhibition of Control Specific Binding” value (TR (TH)) of the same molecule?
A: -13%

Q: What about the concentration at 1 h (in vivo [1]; Free Plasma conc.) of the same molecule?
A: 523 nM

Q: And the concentration at 2 h (in vivo [1]; Free Plasma conc.)?
A: 240 nM

Q: What about the concentration at 6 h (in vivo [1]; Free Plasma conc.) of the same molecule?
A: 29 nM

Q: What about the concentration at 24 h (in vivo [1]; Free Plasma conc.) of the same molecule?
A: 3 nM

Q: And the concentration at 1 h (in vivo [1]; Free tumor conc.)?
A: 171 nM

Q: And the concentration at 2 h (in vivo [1]; Free tumor conc.)?
A: 120 nM

Q: And the concentration at 6 h (in vivo [1]; Free tumor conc.)?
A: 55 nM

Q: And the concentration at 24 h (in vivo [1]; Free tumor conc.)?
A: 28 nM

Q: What about the concentration at 1 h (in vivo [1]; Total Plasma conc.) of the same molecule?
A: 14900 nM

Q: And the concentration at 2 h (in vivo [1]; Total Plasma conc.)?
A: 6860 nM

Q: What about the concentration at 6 h (in vivo [1]; Total Plasma conc.) of the same molecule?
A: 822 nM

Q: And the concentration at 24 h (in vivo [1]; Total Plasma conc.)?
A: 90 nM

Q: What about the concentration at 1 h (in vivo [1]; Total tumor conc.) of the same molecule?
A: 4880 nM

Q: What about the concentration at 2 h (in vivo [1]; Total tumor conc.) of the same molecule?
A: 3420 nM

Q: What about the concentration at 6 h (in vivo [1]; Total tumor conc.) of the same molecule?
A: 1570 nM

Q: What about the concentration at 24 h (in vivo [1]; Total tumor conc.) of the same molecule?
A: 796 nM

Q: What about the “% effect” value (IRAK4) of the same molecule?
A: 6%

Q: And the inhibition at 10 µM (CB2 (h))?
A: 29%

Q: What about the “% effect” value (ROCK-II) of the same molecule?
A: -10%

Q: What about the “% effect” value (TSSK2) of the same molecule?
A: 9%

Q: And the “% effect” value (RSK2)?
A: -11%

Q: And the “% effect” value (NEK7)?
A: 15%

Q: What about the “% effect” value (CDK1/CYCLINB) of the same molecule?
A: -12%

Q: What about the “% effect” value (MLCK) of the same molecule?
A: 3%

Q: And the “% effect” value (RON)?
A: -1%

Q: What about the inhibition at 10 µM (sst4 (h)) of the same molecule?
A: 9%

Q: And the “% effect” value (ITK)?
A: -9%

Q: What about the “% effect” value (BRSK2) of the same molecule?
A: 0%

Q: What about the “% effect” value (TBK1) of the same molecule?
A: 6%

Q: What about the “% effect” value (STK33) of the same molecule?
A: 0%

Q: What about the “% effect” value (MAPK2) of the same molecule?
A: -6%

Q: What about the “% effect” value (GSK3BETA) of the same molecule?
A: -11%

Q: What about the “Solubility Kinetic” value [2] of the same molecule?
A: 137 µM (≈ 56.3 µg/mL)

Q: What about the inhibition at 10 µM (sst1 (h)) of the same molecule?
A: -4%

Q: And the “% effect” value (EPHA8)?
A: -9%

Q: And the “% effect” value (NLK)?
A: -5%

Q: What about the “% effect” value (PIM-1) of the same molecule?
A: 2%

Q: What about the “% effect” value (PKD2) of the same molecule?
A: -1%

Q: What about the Vd (in vivo [3]) of the same molecule?
A: 1.4 L/kg

Q: And the clearance (in vivo [3]; iv)?
A: 17.8 mL/min/kg

Q: What about the “% effect” value (PKCDELTA) of the same molecule?
A: 6%

Q: And the “% effect” value (MET)?
A: 1%

Q: What about the inhibition at 10 µM (GABAB(1b) (h)) of the same molecule?
A: 2%

Q: And the “% effect” value (cMET (Y1248D))?
A: -1%

Q: And the “% effect” value (PIM-3)?
A: 6%
